The supplement of paper PMC13380429

Assays:
HepG2 [1] = experiment: relative viability EC50 (midpoint between 100% and the lowest measured viability); higher = less toxic; conditions: 72 h
Calu-3 [2] = experiment: as above; conditions: 72 h
[3] = system: A549-ACE2 infected with SARS-CoV-2; experiment: morphology score (similarity to uninfected cells); higher = more like uninfected cells; conditions: 24 h
A549-ACE2 [4] = experiment: drug-induced phospholipidosis relative to tamoxifen; higher = more phospholipidosis
[5] = system: A549-ACE2 infected with SARS-CoV-2; experiment: SARS-CoV-2 infection rate relative to DMSO; higher = more infection; conditions: 24 h
HepG2 [6] = experiment: cell viability relative to DMSO; higher = less toxic; conditions: 72 h
Caco-2 [7] = experiment: as above; conditions: 72 h
Calu-3 [8] = experiment: as above; conditions: 72 h
U2OS [9] = experiment: as above; conditions: 72 h
Vero E6 [10] = experiment: as above; conditions: 72 h
A549-ACE2 [11] = experiment: phospholipidosis EC50; higher = less potent phospholipidosis inducer
[12] = system: A549-ACE2 infected with SARS-CoV-2; experiment: cell count relative to DMSO; higher = less toxic; conditions: 24 h
HepG2 [13] = experiment: drug sensitivity score (DSS) for viability; higher = more toxic; extreme values may be limits of the assay; conditions: 72 h
Caco-2 [14] = experiment: as above; conditions: 72 h
Calu-3 [15] = experiment: as above; conditions: 72 h
U2OS [16] = experiment: as above; conditions: 72 h
Vero E6 [17] = experiment: as above; conditions: 72 h
U2OS [18] = experiment: relative viability EC50 (midpoint between 100% and the lowest measured viability); higher = less toxic; conditions: 72 h
Vero E6 [19] = experiment: as above; conditions: 72 h

COC(=O)C1=C(C)NC(C)=C(C(=O)NCCCN2CCC(c3ccccc3)(c3ccccc3)CC2)C1c1ccc([N+](=O)[O-])cc1 (configuration not stated) [SNAP-5089]
Conditions | drug sensitivity score | relative viability EC50 [µM]
Caco-2 [14] | 1.4 | –
Calu-3 [2] | – | 3.57
Calu-3 [15] | 4.4 | –
HepG2 [1] | – | 3.02
HepG2 [13] | 3.7 | –
U2OS [16] | 1.6 | –
Vero E6 [17] | 1.9 | –

Conditions | SARS-CoV-2 infection rate [%] | cell count [%] | cell viability [%] | morphology score | phospholipidosis EC50 [µM]
A549-ACE2 [11], 24 h | – | – | – | – | 0.945
A549-ACE2 [11], 48 h | – | – | – | – | 1.98
A549-ACE2 [11], 72 h | – | – | – | – | 4.51
Caco-2 [7], 1 nM | – | – | 95.4 | – | –
Caco-2 [7], 10 nM | – | – | 94.8 | – | –
Caco-2 [7], 100 nM | – | – | 92.9 | – | –
Caco-2 [7], 1000 nM | – | – | 106 | – | –
Caco-2 [7], 10000 nM | – | – | 63 | – | –
Calu-3 [8], 1 nM | – | – | 88.4 | – | –
Calu-3 [8], 10 nM | – | – | 101 | – | –
Calu-3 [8], 100 nM | – | – | 92.3 | – | –
Calu-3 [8], 1000 nM | – | – | 107 | – | –
Calu-3 [8], 10000 nM | – | – | 12.1 | – | –
HepG2 [6], 1 nM | – | – | 114 | – | –
HepG2 [6], 10 nM | – | – | 108 | – | –
HepG2 [6], 100 nM | – | – | 102 | – | –
HepG2 [6], 1000 nM | – | – | 98.6 | – | –
HepG2 [6], 10000 nM | – | – | 35.5 | – | –
U2OS [9], 1 nM | – | – | 94.4 | – | –
U2OS [9], 10 nM | – | – | 98.7 | – | –
U2OS [9], 100 nM | – | – | 98.5 | – | –
U2OS [9], 1000 nM | – | – | 102 | – | –
U2OS [9], 10000 nM | – | – | 63.8 | – | –
Vero E6 [10], 1 nM | – | – | 94.8 | – | –
Vero E6 [10], 10 nM | – | – | 98.5 | – | –
Vero E6 [10], 100 nM | – | – | 97.4 | – | –
Vero E6 [10], 1000 nM | – | – | 91.8 | – | –
Vero E6 [10], 10000 nM | – | – | 74.3 | – | –
[3], 0.1 µM | – | – | – | 0.15 | –
[3], 0.3 µM | – | – | – | -0.06 | –
[3], 1 µM | – | – | – | 0.43 | –
[3], 3 µM | – | – | – | 0.87 | –
[5], 0.1 µM | 92 | – | – | – | –
[5], 0.3 µM | 107 | – | – | – | –
[5], 1 µM | 84 | – | – | – | –
[5], 3 µM | 23 | – | – | – | –
[12], 0.1 µM | – | 104 | – | – | –
[12], 0.3 µM | – | 100 | – | – | –
[12], 1 µM | – | 110 | – | – | –
[12], 3 µM | – | 123 | – | – | –

drug-induced phospholipidosis [%], A549-ACE2 [4]
Conditions | 0.3 µM | 0.833333 µM | 3.33333 µM | 6.66667 µM | 10 µM | 30 µM
24 h | 5.01 | 19.9 | 66.9 | 74.6 | 62.5 | 47.6
48 h | 7.57 | 17.4 | 77.4 | 93.7 | 96.6 | –
72 h | 6.91 | 11.4 | 64.3 | 94.9 | 116 | –

CC/C(=C(\c1ccc(O)cc1)c1ccc(OCCN(C)C)cc1)c1ccccc1 [afimoxifene]
Conditions | drug sensitivity score | relative viability EC50 [µM]
Caco-2 [14] | 2.5 | –
Calu-3 [2] | – | 3.52
Calu-3 [15] | 3.7 | –
HepG2 [13] | 1.8 | –
U2OS [16] | 1.2 | –
U2OS [18] | – | > 10
Vero E6 [17] | 0.3 | –
Vero E6 [19] | – | > 10

Conditions | SARS-CoV-2 infection rate [%] | cell count [%] | cell viability [%] | morphology score | phospholipidosis EC50 [µM]
A549-ACE2 [11], 24 h | – | – | – | – | 1.78
A549-ACE2 [11], 48 h | – | – | – | – | 2.82
A549-ACE2 [11], 72 h | – | – | – | – | 3.95
Caco-2 [7], 1 nM | – | – | 93 | – | –
Caco-2 [7], 10 nM | – | – | 91.2 | – | –
Caco-2 [7], 100 nM | – | – | 95.5 | – | –
Caco-2 [7], 1000 nM | – | – | 94 | – | –
Caco-2 [7], 10000 nM | – | – | 66.6 | – | –
Calu-3 [8], 1 nM | – | – | 91.7 | – | –
Calu-3 [8], 10 nM | – | – | 103 | – | –
Calu-3 [8], 100 nM | – | – | 102 | – | –
Calu-3 [8], 1000 nM | – | – | 105 | – | –
Calu-3 [8], 10000 nM | – | – | 25.2 | – | –
HepG2 [6], 1 nM | – | – | 94.6 | – | –
HepG2 [6], 10 nM | – | – | 111 | – | –
HepG2 [6], 100 nM | – | – | 90.7 | – | –
HepG2 [6], 1000 nM | – | – | 112 | – | –
HepG2 [6], 10000 nM | – | – | 54.3 | – | –
U2OS [9], 1 nM | – | – | 96.8 | – | –
U2OS [9], 10 nM | – | – | 94.8 | – | –
U2OS [9], 100 nM | – | – | 102 | – | –
U2OS [9], 1000 nM | – | – | 97.2 | – | –
U2OS [9], 10000 nM | – | – | 77.6 | – | –
Vero E6 [10], 1 nM | – | – | 93.7 | – | –
Vero E6 [10], 10 nM | – | – | 98.9 | – | –
Vero E6 [10], 100 nM | – | – | 99.8 | – | –
Vero E6 [10], 1000 nM | – | – | 104 | – | –
Vero E6 [10], 10000 nM | – | – | 81.2 | – | –
[3], 0.3 µM | – | – | – | -0.03 | –
[3], 3 µM | – | – | – | 0.75 | –
[3], 10 µM | – | – | – | 0.83 | –
[3], 30 µM | – | – | – | -0.14 | –
[5], 0.3 µM | 112 | – | – | – | –
[5], 3 µM | 47 | – | – | – | –
[5], 10 µM | 13 | – | – | – | –
[5], 30 µM | 68 | – | – | – | –
[12], 0.3 µM | – | 99 | – | – | –
[12], 3 µM | – | 121 | – | – | –
[12], 10 µM | – | 117 | – | – | –
[12], 30 µM | – | 81 | – | – | –

drug-induced phospholipidosis [%], A549-ACE2 [4]
Conditions | 0.3 µM | 0.833333 µM | 3.33333 µM | 6.66667 µM | 10 µM | 30 µM
24 h | 3.39 | 11.5 | 51 | 69.1 | 81.9 | 36.9
48 h | 3.38 | 6.29 | 53.4 | 74.8 | 82.8 | –
72 h | 5.01 | 4.34 | 43.1 | 75.7 | 88.4 | –
